Measurements taken from patent publication US20180153859A1, “METHODS OF TREATING OR PREVENTING COGNITIVE IMPAIRMENT USING INDANE ACETIC ACID DERIVATIVES BASED ON APOE4 GENOTYPE” (T3D Therapeutics, Inc., priority 2016, published 2018).

Tested on: mild to moderate severity Alzheimer's patients
Assay: ADAS-cog11 cognitive test in Alzheimer's patients stratified by ApoE4 genotype (trial NCT02560753)
Format: in vivo, human
Details: for cognitive improvement (ADAS-cog11 score change): D1-D14 and D1-D21
Method: Table 8c compares the average ADAS-cog11 score of all subjects, treated at all doses of T3D-959 in trial NCT02560753 (ClinicalTrials.gov), stratified by ApoE4 genotype and compares those scores with the average score of the group of subjects dosed at 3 mg, 10 mg, and 30 mg/d. ADAS-cog11 score change from day 1 (pre-dosing) to day 14 (D1-D14, end of treatment) and from day 1 to day 21 (D1-D21, followup) are shown.
Shown in this table are ADAS-cog11 cognitive test score changes from before dosing on day 1 of treatment (D1) to end of drug treatment on Day 14 (D14) and at follow-up 7 days post-dosing on Day 21 (D21). Drug treatment of mild to moderate severity Alzheimer's patients (MMSE=14-26) with T3D-959 was for 14 days q.d. at 3 mg, 10 mg, 30 mg or 90 mg (n=number of subjects evaluable at each dose). The ADAS-cog11 test score changes at each dose were stratified by ApoE4 genotype [E4=one or two ApoE4 alleles, Non-E4=no ApoE4 alleles].
ADAS-cog score change from day 1 to day 14 (D1-D14) and from day 1 to day 21 (D1-D21) are shown.
Adult human subjects who were tested for the presence of the ApoE4 gene (one or two E4 alleles) and had Alzheimer's disease were tested with the compound of the invention ((1S)-5-{5-ethyl-2-(4-methoxyphenyl)-1,3-oxazol-4-yl]ethoxy}-2,3-dihydro-1H-inden-1-yl) acetic acid, sodium salt. Subjects either lacked ApoE4 alleles (non-E4) or had one or two ApoE4 alleles (E4).

Question: CCc1oc(-c2ccc(OC)cc2)nc1CCOc1ccc2c(c1)CC[C@H]2CC(=O)[O-].[Na+] [Example T3D-959] was tested. Which “cognitive improvement (ADAS-cog11 score change)” value (ApoE4 carriers (one or two ApoE4 alleles), 30 mg and 90 mg/d q.d. for 14 days) did it give?
Answer: improvement

Question: And the “cognitive improvement (ADAS-cog11 score change)” value (ApoE4 non-carriers, 3 mg, 10 mg and 30 mg/d q.d. for 14 days, acetic acid, sodium salt)?
Answer: greater cognitive improvement

Question: CCc1oc(-c2ccc(OC)cc2)nc1CCOc1ccc2c(c1)CC[C@H]2CC(=O)[O-].[Na+] was tested. Which “most effective / required daily dose for cognitive improvement” value (AD subjects with one or two ApoE4 alleles) did it give?
Answer: ≥ 30 mg

Question: And the “most effective daily dose for cognitive improvement” value (ApoE4 non-carrier AD subjects)?
Answer: 3 to 30 mg qd

Question: And the “cognitive improvement (ADAS-cog11 score change)” value (ApoE4 non-carriers, 3 mg, 10 mg and 30 mg/d q.d. for 14 days)?
Answer: showed improvement in cognition
